From patent US12655116B2, “Substituted isophthalic acid diamides” (Bayer Aktiengesellschaft, priority 2020, dated 2026)
“And” between values parts separate entries of the source, which are not always exact repeats. Identical values can stand only once.

Tests used:
VIOTR [1] = assay: Pre-emergence herbicidal action against VIOTR; assay type: in vivo, Viola tricolor
Method in brief: (§1)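 Greenhouse pots of sandy loam held seeds covered with soil, onto which the compound was applied before emergence. An aqueous suspension or emulsion of WP or EC was used at 600 to 800 l/ha with 0.2% wetting agent. Percent damage was judged visually at 3 weeks.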

AVEFA [2] = assay: Post-emergence herbicidal action against AVEFA; assay type: in vivo, Avena fatua; conditions: 20 g/ha, visual assessment about 3 weeks after treatment, 100% = plants have died, 0% = like control plants
Method in brief: (§2)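 Foliar application at one-leaf stage of formulated test compounds, aqueous spray at 600–800 l/ha with 0.2% wetting agent. Greenhouse, optimal conditions, ~3 weeks; damage scored visually in % relative to untreated plants.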

VIOTR [3] = assay: Post-emergence herbicidal action against VIOTR; assay type: in vivo, Viola tricolor
Method in brief: as §2

ALOMY [4] = assay: Pre-emergence herbicidal action against ALOMY; assay type: in vivo, Alopecurus myosuroides; conditions: 80 g/ha, pre-emergence, scored visually after 3 weeks vs untreated controls (100% = plants have died, 0% = like control plants)
Method in brief: as §1

VERPE [5] = assay: Post-emergence herbicidal action against VERPE; assay type: in vivo, Veronica persica; conditions: 20 g/ha
Method in brief: as §2

ABUTH [6] = assay: Pre-emergence herbicidal action against ABUTH; assay type: in vivo, Abutilon theophrasti
Method in brief: as §1

ECHCG [7] = assay: Post-emergence herbicidal action against ECHCG; assay type: in vivo, Echinochloa crus-galli
Method in brief: as §2

AMARE [8] = assay: Pre-emergence herbicidal action against AMARE; assay type: in vivo, Amaranthus retroflexus
Method in brief: as §1

SETVI [9] = assay: Pre-emergence herbicidal action against SETVI; assay type: in vivo, Setaria viridis
Method in brief: as §1

AMARE [10] = assay: Post-emergence herbicidal action against AMARE; assay type: in vivo, Amaranthus retroflexus; conditions: 20 g/ha, visual assessment about 3 weeks after treatment, 100% = plants have died, 0% = like control plants
Method in brief: as §2

DIGSA [11] = assay: Post-emergence herbicidal action against DIGSA; assay type: in vivo, Digitaria sanguinalis
Method in brief: as §2

AVEFA [12] = assay: Pre-emergence herbicidal action against AVEFA; assay type: in vivo, Avena fatua; conditions: pre-emergence
Method in brief: as §1

PHBPU [13] = assay: Pre-emergence herbicidal action against PHBPU; assay type: in vivo, Pharbitis purpurea; conditions: dosage 80 g/ha
Method in brief: as §1

LOLRI = assay: Pre-emergence herbicidal action against LOLRI; assay type: in vivo, Lolium rigidum; conditions: 80 g/ha
Method in brief: as §1

VERPE [14] = assay: Pre-emergence herbicidal action against VERPE; assay type: in vivo, Veronica persica; conditions: dosage 80 g/ha
Method in brief: as §1

ECHCG [15] = assay: Pre-emergence herbicidal action against ECHCG; assay type: in vivo, Echinochloa crus-galli
Method in brief: as §1

SETVI [16] = assay: Post-emergence herbicidal action against SETVI; assay type: in vivo, Setaria viridis
Method in brief: as §2

MATIN [17] = assay: Post-emergence herbicidal action against MATIN; assay type: in vivo, Matricaria inodora
Method in brief: as §2

MATIN [18] = assay: Pre-emergence herbicidal action against MATIN; assay type: in vivo, Matricaria inodora
Method in brief: as §1

POLCO = assay: Pre-emergence herbicidal action against POLCO; assay type: in vivo, Polygonum convolvulus; conditions: dosage 80 g/ha
Method in brief: as §1

ALOMY [19] = assay: Post-emergence herbicidal action against ALOMY; assay type: in vivo, Alopecurus myosuroides; conditions: visual assessment about 3 weeks after treatment vs untreated controls
Method in brief: as §2

DIGSA [20] = assay: Pre-emergence herbicidal action against DIGSA; assay type: in vivo, Digitaria sanguinalis
Method in brief: as §1

PHBPU [21] = assay: Post-emergence herbicidal action against PHBPU; assay type: in vivo, Pharbitis purpurea
Method in brief: as §2

ABUTH [22] = assay: Post-emergence herbicidal action against ABUTH; assay type: in vivo, Abutilon theophrasti; conditions: visual assessment about 3 weeks after treatment vs untreated controls
Method in brief: as §2

[23] = 80 g/ha, scored visually after 3 weeks vs untreated controls (100% = plants have died, 0% = like control plants)
[24] = Setaria viridis, 504 h, dosage 20 g/ha
[25] = Tripleurospermum inodorum, 504 h, dosage 20 g/ha

CCn1nnnc1NC(=O)c1ccc(C(F)F)c(C(=O)NCC2CC2)c1C [Example 2-47]
Pre-emergence action against VIOTR in % (VIOTR [1]; dosage 20 g/ha): 80% | Pre-emergence action against VIOTR in % (VIOTR [1]; dosage 80 g/ha): 100% | Post-emergence action at 20 g/ha against AVEFA in % (AVEFA [2]): 80% | Post-emergence action against VIOTR in % (VIOTR [3]; 5 g/ha): 80% | Post-emergence action against VIOTR in % (VIOTR [3]; 20 g/ha): 90% and 80% | Pre-emergence action against ALOMY (herbicidal activity) (ALOMY [4]): 100% | Post-emergence action against VERPE in % (VERPE [5]): 80% | Pre-emergence action against ABUTH (herbicidal activity) (ABUTH [6]; [23]): 100% | Pre-emergence action against ABUTH (herbicidal activity in percent) (ABUTH [6]; dosage 20 g/ha, scored visually after 3 weeks vs untreated controls, 100% = plants have died, 0% = like control plants): 100% | Post-emergence action against ECHCG in % (ECHCG [7]; dosage 5 g/ha): 80% | Post-emergence action against ECHCG in % (ECHCG [7]; dosage 20 g/ha): 90% and 80% | Pre-emergence action against AMARE in % (AMARE [8]; 20 g/ha, scored visually after 3 weeks vs untreated controls, 100% = plants have died, 0% = like control plants): 100% | Pre-emergence action against AMARE in % (AMARE [8]; [23]): 100% | Pre-emergence action against SETVI in % (SETVI [9]; dosage 80 g/ha): 100% | Post-emergence action at 20 g/ha against AMARE in % (AMARE [10]): 90% and 100% | Post-emergence action against DIGSA in % (DIGSA [11]; 5 g/ha): 90% | Post-emergence action against DIGSA (DIGSA [11]; 20 g/ha): 90% | Pre-emergence action against AVEFA in % (AVEFA [12]; 80 g/ha): 80% | Pre-emergence action against PHBPU in % (PHBPU [13]): 90% | Pre-emergence action against LOLRI in % (LOLRI): 80% | Pre-emergence action against VERPE in % (VERPE [14]): 100% | Pre-emergence action against ECHCG in % (ECHCG [15]; 80 g/ha): 100% | Post-emergence action against SETVI in % (SETVI [16]; dosage 20 g/ha): 90% | Post-emergence action against MATIN in % (MATIN [17]; dosage 20 g/ha): 80% | Pre-emergence action against MATIN in % (MATIN [18]; dosage 20 g/ha): 100% | Pre-emergence action against MATIN in % (MATIN [18]; dosage 80 g/ha): 100% | Pre-emergence action against POLCO in % (POLCO): 80% | Post-emergence action against ALOMY in % (ALOMY [19]; dosage 5 g/ha): 80% | Post-emergence action against ALOMY in % (ALOMY [19]; dosage 20 g/ha): 90% | Pre-emergence action against DIGSA in % (DIGSA [20]; dosage 20 g/ha): 100% | Pre-emergence action against DIGSA in % (DIGSA [20]; dosage 80 g/ha): 100% | Post-emergence action against PHBPU in % (PHBPU [21]; dosage 5 g/ha): 80% | Post-emergence action against PHBPU in % (PHBPU [21]; dosage 20 g/ha): 90% | Post-emergence action against ABUTH in % (ABUTH [22]; dosage 5 g/ha): 90% and 80% | Post-emergence action against ABUTH in % (ABUTH [22]; dosage 20 g/ha): 90%

CCn1nnnc1NC(=O)c1ccc(C(F)(F)F)c(C(=O)NC2CC2)c1C1CC1 [Example 2-288]
pest or weed control at 20 g/ha (VIOTR [1]; Viola tricolor, 504 h, dosage 20 g/ha): 100% | pest or weed control at 80 g/ha (VIOTR [1]; Viola tricolor, 504 h, dosage 80 g/ha): 100% | pest or weed control at 20 g/ha (AVEFA [2]; Avena fatua, 504 h): 80% | pest or weed control at 5 g/ha (VIOTR [3]; Viola tricolor, 504 h, 5 g/ha): 90% | pest or weed control at 20 g/ha (VIOTR [3]; Viola tricolor, 504 h, 20 g/ha): 100% | pest or weed control at 80 g/ha (ALOMY [4]; Alopecurus myosuroides, 504 h): 90% | pest or weed control at 20 g/ha (VERPE [5]; Veronica persica, 504 h): 80% | pest or weed control at 80 g/ha (ABUTH [6]; Abutilon theophrasti, 504 h, 80 g/ha, scored visually after 3 weeks vs untreated controls (100% = plants have died, 0% = like control plants)): 100% | pest or weed control at 20 g/ha (ABUTH [6]; Abutilon theophrasti, 504 h, dosage 20 g/ha, scored visually after 3 weeks vs untreated controls, 100% = plants have died, 0% = like control plants, read-out: Pre-emergence action against ABUTH (herbicidal activity in percent)): 100% | pest or weed control at 5 g/ha (ECHCG [7]; Echinochloa crus-galli, 504 h, dosage 5 g/ha): 80% | pest or weed control at 20 g/ha (ECHCG [7]; Echinochloa crus-galli, 504 h, dosage 20 g/ha): 80% | pest or weed control at 20 g/ha (AMARE [8]; Amaranthus retroflexus, 504 h, 20 g/ha, scored visually after 3 weeks vs untreated controls, 100% = plants have died, 0% = like control plants): 100% | pest or weed control at 80 g/ha (AMARE [8]; Amaranthus retroflexus, 504 h, 80 g/ha, scored visually after 3 weeks vs untreated controls, 100% = plants have died, 0% = like control plants): 100% | pest or weed control at 20 g/ha (SETVI [9]; [24]): 90% | pest or weed control at 80 g/ha (SETVI [9]; Setaria viridis, 504 h, dosage 80 g/ha): 100% | pest or weed control at 20 g/ha (AMARE [10]; Amaranthus retroflexus, 504 h): 100% | pest or weed control at 5 g/ha (DIGSA [11]; Digitaria sanguinalis, 504 h, 5 g/ha): 90% | pest or weed control at 20 g/ha (DIGSA [11]; Digitaria sanguinalis, 504 h, 20 g/ha): 90% | pest or weed control at 80 g/ha (AVEFA [12]; Avena fatua, 504 h, 80 g/ha): 90% | pest or weed control at 20 g/ha (AVEFA [12]; Avena fatua, 504 h, 20 g/ha, scored visually after 3 weeks, 100% = plants have died, 0% = like control plants): 80% | pest or weed control at 80 g/ha (PHBPU [13]; Ipomoea purpurea, 504 h): 90% | pest or weed control at 80 g/ha (LOLRI; Lolium rigidum, 504 h): 90% | pest or weed control at 80 g/ha (VERPE [14]; Veronica persica, 504 h): 100% | pest or weed control at 20 g/ha (ECHCG [15]; Echinochloa crus-galli, 504 h, 20 g/ha): 90% | pest or weed control at 80 g/ha (ECHCG [15]; Echinochloa crus-galli, 504 h, 80 g/ha): 100% | pest or weed control at 5 g/ha (SETVI [16]; Setaria viridis, 504 h, dosage 5 g/ha): 80% | pest or weed control at 20 g/ha (SETVI [16]; [24]): 90% | pest or weed control at 5 g/ha (MATIN [17]; Tripleurospermum inodorum, 504 h, dosage 5 g/ha): 80% | pest or weed control at 20 g/ha (MATIN [17]; [25]): 90% | pest or weed control at 20 g/ha (MATIN [18]; [25]): 90% | pest or weed control at 80 g/ha (MATIN [18]; Tripleurospermum inodorum, 504 h, dosage 80 g/ha): 100% | pest or weed control at 80 g/ha (POLCO; Fallopia convolvulus, 504 h): 90% | pest or weed control at 20 g/ha (ALOMY [19]; Alopecurus myosuroides, 504 h, dosage 20 g/ha): 90% | pest or weed control at 20 g/ha (DIGSA [20]; Digitaria sanguinalis, 504 h, dosage 20 g/ha): 100% | pest or weed control at 80 g/ha (DIGSA [20]; Digitaria sanguinalis, 504 h, dosage 80 g/ha): 100% | pest or weed control at 5 g/ha (PHBPU [21]; Ipomoea purpurea, 504 h, dosage 5 g/ha): 80% | pest or weed control at 20 g/ha (PHBPU [21]; Ipomoea purpurea, 504 h, dosage 20 g/ha): 90% | pest or weed control at 5 g/ha (ABUTH [22]; Abutilon theophrasti, 504 h, dosage 5 g/ha): 80% | pest or weed control at 20 g/ha (ABUTH [22]; Abutilon theophrasti, 504 h, dosage 20 g/ha): 80%
